In article PMC10266688 (PLOS ONE, 2023):
Where two headings read alike, the source gives them in different places.

Legend:
SKOV3 cells = experiment: MTT cytotoxicity assay, SKOV3 cells, 72 h; assay type: cell-based; settings: Homo sapiens, SK-OV-3; 72 h treatment
[1] = Repeat IP dosing tolerability in Balb/c and C57BL/6 mice; assay type: in vivo; settings: female Balb/c and C57BL/6 mice
[2] = Single dose pharmacokinetics in CD1 mice (IV, IP, PO), plasma LC-MS/MS; assay type: in vivo, mouse; settings: for Plasma concentration: individual (Group A)
Description: For single dose pharmacokinetic studies, plasma samples (40 μL) were mixed with 200 μL of a water-methanol mixture 1:9, v/v containing the internal standard elacridar at 400 ng/mL. After mixing by pipetting and centrifuging for 4 min at 6000 rpm, 1 μL of each supernatant was injected into LC-MS/MS system. […] Mobile phase A was acetonitrile/water (5:95, v/v) containing 1% formic acid, and mobile phase B was acetonitrile containing 0.1% formic acid. The gradient was initiated with mobile phase B at 15% and was held at 15% for 0.9 minutes with a flow rate of 0.4 mL/min, then increased to 100% and held for 0.1 minutes, and finally returned back to 15% mobile phase B and allowed to equilibrate until 2.2 minutes. […] The lower limit of quantitation (LLOQ) in plasma was 50 ng/mL.
Pharmacokinetic parameters were calculated from mean concentration-time data using non-compartmental methods in Phoenix WinNonlin version 8.3 (Certara, Princeton, NJ). Concentrations after the time 0 sample that were below the LLOQ were imputed with ½ that value. Any concentration that was determined to be an outlier by the Grubbs’s outlier test were excluded from analysis. The maximum plasma concentration (Cmax) and time to Cmax (Tmax) were the observed values. The AUClast was calculated using the log-linear trapezoidal method. AUC was extrapolated to infinity (AUCINF) by dividing the last quantifiable concentration by the terminal disposition rate constant (λz). The λz was determined from at least 3 points on the slope of the terminal phase of the concentration-time profile. The terminal half-life (T1/2) was determined by dividing 0.693 by λz. Apparent clearance (Cl/F) was calculated by dividing the dose administered by AUCINF. Apparent volume of distribution (V/F) was calculated by dividing Cl/F by λz. […] The oral and IP bioavailability was calculated as: F(%)={DoseIV×AUC(0−∞)PO/DosePO×AUC(0−∞)IV}.100%
The Method of Bailer was used to estimate the variance of AUC given the calculated variance of the mean concentration at each time point. […]. In all cases, p < 0.05 was considered statistically significant.
This was followed by a more detailed pharmacokinetic study, in which CD1 (n = 4; […]. Nine time points for IV and IP (5, 15, 30, 60, 120, 240, 360, 480 and 1440 min) and eight time points for PO (15, 30, 60,120, 240, 360, 480 and 1440 min) administration were set for this pharmacokinetic study. Each of the time point treatment group included 4 animals. Mice were injected IP with 2,2,2-tribromoethanol (150 mg/kg) prior to drawing the blood in microtainers containing K3EDTA via retro-orbital bleeding. Blood samples were centrifuged 10 min at 3000 rpm. Brain samples (right lobe) were collected and weighted. All samples were immediately processed, flash-frozen and stored at -70°C until subsequent analysis. […] Pharmacokinetic parameters were calculated from mean concentration-time data using non-compartmental methods in Phoenix WinNonlin version 8.3 (Certara, Princeton, NJ)). Using the Method of Bailer, there was no different in dose normalized AUClast by any route of administration (S17 Table).

[3] = system: HMW polyUb proteins in ES2 cells; experiment: Western blot for polyubiquitinated proteins; settings: by 12 h
[4] = CD-1, mouse, in vivo, ip, 20 mg/kg, Plasma concentration
[5] = CD-1, mouse, in vivo, ip, 20 mg/kg, Plasma concentration, Mean
[6] = male CD1 mice, IV 5 mg/kg, 0 min
[7] = male, CD1, mouse, in vivo, ip, 20 mg/kg
[8] = male, CD1, mouse, in vivo, iv, 5 mg/kg
[9] = male, CD1, mouse, in vivo, iv, 5 mg/kg, Plasma concentration
[10] = male, CD1, mouse, in vivo, iv, 5 mg/kg, Plasma concentration, Mean
[11] = male, CD1, mouse, in vivo, po, 50 mg/kg
[12] = male, CD-1, mouse, in vivo, po, 50 mg/kg, Plasma concentration
[13] = male, CD-1, mouse, in vivo, po, 50 mg/kg, Plasma concentration, Mean

## N#Cc1ccc(/C=C2/C(=O)/C(=C/c3ccc(C#N)cc3)C23CCNCC3)cc1 [Up284]
SKOV3 cells
  IC50: 71 nM
[1]
  tolerability of 60 mg/kg IP every third day: toxic
[1]; mouse, in vivo, ip, read-out: MTD after 3 doses, IP delivery every third day
  MTD: 40 mg/kg
[2]; CD1, mouse, in vivo
  time to clear from the bloodstream to a low steady state: 2 to 4 h
[2]; [4]
  concentration at 15 min: 2480 ng/mL
  concentration at 60 min: 2400 ng/mL
  concentration at 120 min: 1950 ng/mL
  concentration at 240 min: 1540 ng/mL
  concentration at 1440 min: 750 ng/mL
[2]; [5]
  concentration at 5 min: 899 ng/mL
  concentration at 15 min: 2180 ng/mL
  concentration at 30 min: 2460 ng/mL
  concentration at 60 min: 2400 ng/mL
  concentration at 120 min: 2140 ng/mL
  concentration at 240 min: 1740 ng/mL
  concentration at 360 min: 789 ng/mL
  concentration at 480 min: 731 ng/mL
  concentration at 1440 min: 610 ng/mL
[2]; CD-1 mice, IP 20 mg/kg, 0 min
  Plasma concentration, Mean: BQL
  Plasma concentration: BQL
[2]; CD-1 mice, PO 50 mg/kg, 0 min
  Plasma concentration, Mean: BQL
  Plasma concentration: BQL
[2]; IV 5, IP 20, PO 50 mg/kg
  adverse effects during PK study: No obvious adverse effects
[2]; Method of Bailer
  dose normalized AUClast by route of administration: no different
[2]; [6]
  Plasma concentration, Mean: BQL
  Plasma concentration: BQL
[2]; male CD1 mice, IV 5 mg/kg, 1440 min, class symbol
  Plasma concentration: BQL
[2]; [7]
  AUC(0-inf): 69500 ng·h/mL
  AUC(0-t): 23000 ng·h/mL
  Cmax: 2460 ng/mL
  Tmax: 0.5 h
  bioavailability: 78%
  half-life: 52.8 h
  k el: 3.65e-06 s⁻¹
[2]; [8]
  AUC(0-inf): 9770 ng·h/mL
  AUC(0-t): 6580 ng·h/mL
  Cmax: 1510 ng/mL
  Vd: 10 L/kg
  half-life: 19 h
  k el: 1.01e-05 s⁻¹
[2]; [9]
  concentration at 5 min: 1620 ng/mL
  concentration at 15 min: 1500 ng/mL
  concentration at 30 min: 1530 ng/mL
  concentration at 60 min: 793 ng/mL
  concentration at 120 min: 670 ng/mL
  concentration at 240 min: 504 ng/mL
  concentration at 360 min: 256 ng/mL
[2]; [10]
  concentration at 5 min: 1450 ng/mL
  concentration at 15 min: 1510 ng/mL
  concentration at 30 min: 1260 ng/mL
  concentration at 60 min: 800 ng/mL
  concentration at 120 min: 669 ng/mL
  concentration at 240 min: 421 ng/mL
  concentration at 360 min: 238 ng/mL
  concentration at 480 min: 190 ng/mL
  concentration at 1440 min: 116 ng/mL
[2]; [11]
  AUC(0-inf): 22800 ng·h/mL
  AUC(0-t): 15100 ng·h/mL
  Cmax: 1830 ng/mL
  Tmax: 0.25 h
  bioavailability: 23%
  half-life: 12.7 h
  k el: 1.51e-05 s⁻¹
[2]; [12]
  concentration at 30 min: 1460 ng/mL
  concentration at 60 min: 1560 ng/mL
  concentration at 120 min: 1650 ng/mL
  concentration at 360 min: 318 ng/mL
[2]; [13]
  concentration at 15 min: 1830 ng/mL
  concentration at 30 min: 1280 ng/mL
  concentration at 60 min: 1430 ng/mL
  concentration at 120 min: 1220 ng/mL
  concentration at 240 min: 798 ng/mL
  concentration at 360 min: 473 ng/mL
  concentration at 480 min: 589 ng/mL
  concentration at 1440 min: 425 ng/mL
[2]; male, mouse, in vivo, CD-1 mice, PO 50 mg/kg, 240 min, individual (Groups A-D), read-out: Plasma concentration
  concentration at 240 min: 366 ng/mL
[2]; male, mouse, in vivo, CD-1 mice, PO 50 mg/kg, 480 min, individual (Groups A-D), read-out: Plasma concentration
  concentration at 480 min: 376 ng/mL
[2]; mouse, in vivo, CD-1 mice, IP 20 mg/kg, 5 min, individual (Groups A-D), read-out: Plasma concentration
  concentration at 5 min: 1060 ng/mL
[2]; mouse, plasma, intraperitoneal, CD1 mice, IP 20 mg/kg vs IV 5 mg/kg, read-out: IP bioavailability
  bioavailability: 87%
[2]; mouse, plasma, CD1 mice, PO 50 mg/kg vs IV 5 mg/kg, read-out: oral bioavailability
  bioavailability: 23%
[3]
  accumulation of HMW polyUb proteins: profound accumulation
